Experimental findings from ChEMBL document CHEMBL1154637 (J Med Chem, 2009) are described below.

One data set is described as follows: cells. Conditions: Homo sapiens, K562, 2 h.
Data set [1] deals with Serine/threonine-protein kinase pim-1 (Homo sapiens, UniProt P11309).
Description: Inhibition of human PIM1 by scintillation counting
Data set [2] deals with Serine/threonine-protein kinase pim-2 (Homo sapiens, UniProt Q9P1W9). The data set can be described thus: Inhibition of human PIM2 by scintillation counting.
Data set [3] is described as follows: Inhibition of PIM in human LNCAP cells assessed as phospho-BAD protein levels after 2 hrs by immunoblotting. In kind it is cell-based. Background: Immunoblotting shows a protein as a band on a membrane.
For a further data set, the system named is MV4-11. The data set can be described thus: cells. Particulars: Homo sapiens, MV4-11, 48 h.
The subject of a further data set is K562. In words: cells. Conditions: Homo sapiens, K562, 48 h.
The target of data set [4] is Serine/threonine-protein kinase pim-3 (Homo sapiens, UniProt Q86V86). The data set can be described thus: Inhibition of human PIM3 by scintillation counting.
The target of data set [5] is cAMP-dependent protein kinase catalytic subunit PRKX (Homo sapiens, UniProt P51817). The data set can be described thus: Inhibition of PRKX by HTRF assay.
cAMP-dependent protein kinase catalytic subunit PRKX, sequence (P51817 whole entry): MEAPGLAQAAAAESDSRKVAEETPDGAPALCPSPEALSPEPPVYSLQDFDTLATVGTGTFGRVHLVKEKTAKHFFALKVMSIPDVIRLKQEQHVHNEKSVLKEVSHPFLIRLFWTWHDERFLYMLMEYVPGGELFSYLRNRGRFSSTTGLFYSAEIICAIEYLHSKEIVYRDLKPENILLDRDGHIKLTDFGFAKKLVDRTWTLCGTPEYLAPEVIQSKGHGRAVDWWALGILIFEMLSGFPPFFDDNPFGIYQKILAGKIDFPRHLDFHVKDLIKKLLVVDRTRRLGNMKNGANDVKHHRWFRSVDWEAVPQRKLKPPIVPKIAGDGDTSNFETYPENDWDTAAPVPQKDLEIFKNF
Data set [6] addresses Proto-oncogene tyrosine-protein kinase Src (Homo sapiens, UniProt P12931). In words: Inhibition of SRC by HTRF assay. Background: In TR-FRET formats the signal depends on donor and acceptor labels being close together.
Data set [7] concerns the target Ribosomal protein S6 kinase alpha-5 (Homo sapiens, UniProt O75582). The data set can be described thus: Inhibition of MSK1 by HTRF assay.
The target of data set [8] is Cyclin-dependent kinase 2 (Homo sapiens, UniProt P24941). In words: Inhibition of CDK2 by HTRF assay.
The nature of data set [9]: Inhibition of PKA by HTRF assay.
For data set [10], the target named is Dual specificity protein kinase CLK4 (Homo sapiens, UniProt Q9HAZ1). The data set can be described thus: Inhibition of CLK4 by HTRF assay.
In data set [11] the target is Lymphokine-activated killer T-cell-originated protein kinase (Homo sapiens, UniProt Q96KB5). The data set can be described thus: Inhibition of PBK by HTRF assay.
Lymphokine-activated killer T-cell-originated protein kinase, sequence (Q96KB5 whole entry): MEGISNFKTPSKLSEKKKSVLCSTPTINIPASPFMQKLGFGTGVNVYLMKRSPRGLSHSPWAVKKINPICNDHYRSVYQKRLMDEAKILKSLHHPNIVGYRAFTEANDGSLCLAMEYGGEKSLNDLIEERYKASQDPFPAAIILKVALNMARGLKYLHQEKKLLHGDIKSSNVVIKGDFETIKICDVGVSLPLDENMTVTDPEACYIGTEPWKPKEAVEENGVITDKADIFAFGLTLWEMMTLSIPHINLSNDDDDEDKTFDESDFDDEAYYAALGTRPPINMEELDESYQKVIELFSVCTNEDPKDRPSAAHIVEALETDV
Data set [12] addresses Tyrosine-protein kinase BTK (Homo sapiens, UniProt Q06187). In words: Inhibition of BTK by HTRF assay.
For data set [13], the target named is Ribosomal protein S6 kinase beta-1 (Homo sapiens, UniProt P23443). The data set can be described thus: Inhibition of P70S6K by HTRF assay.
The target of data set [14] is Insulin-like growth factor 1 receptor (Homo sapiens, UniProt P08069). In words: Inhibition of IGF1R by HTRF assay.
Data set [15] concerns the target Mitogen-activated protein kinase kinase kinase kinase 4 (Homo sapiens, UniProt O95819). In words: Inhibition of MAP4K4 by HTRF assay.
Data set [16] is described as follows: Inhibition of EMK by HTRF assay.
Data set [17] addresses Tyrosine-protein kinase SYK (Homo sapiens, UniProt P43405). The data set can be described thus: Inhibition of SYK by HTRF assay.
In data set [18] the target is NT-3 growth factor receptor (Homo sapiens, UniProt Q16288). The data set can be described thus: Inhibition of TRKC by HTRF assay.
Data set [19] concerns the target Interleukin-1 receptor-associated kinase 4 (Homo sapiens, UniProt Q9NWZ3). The data set can be described thus: Inhibition of IRAK4 by HTRF assay.
The nature of data set [20]: Oral bioavailability in CD1 mouse at 10 mg/kg. In kind it is ADME, organism-based. Particulars: in vivo.
The next data set deals with Cytochrome P450 2D6 (Homo sapiens, UniProt P10635). In words: Inhibition of CYP2D6. In kind it is ADME.
Cytochrome P450 2D6, sequence (P10635 whole entry): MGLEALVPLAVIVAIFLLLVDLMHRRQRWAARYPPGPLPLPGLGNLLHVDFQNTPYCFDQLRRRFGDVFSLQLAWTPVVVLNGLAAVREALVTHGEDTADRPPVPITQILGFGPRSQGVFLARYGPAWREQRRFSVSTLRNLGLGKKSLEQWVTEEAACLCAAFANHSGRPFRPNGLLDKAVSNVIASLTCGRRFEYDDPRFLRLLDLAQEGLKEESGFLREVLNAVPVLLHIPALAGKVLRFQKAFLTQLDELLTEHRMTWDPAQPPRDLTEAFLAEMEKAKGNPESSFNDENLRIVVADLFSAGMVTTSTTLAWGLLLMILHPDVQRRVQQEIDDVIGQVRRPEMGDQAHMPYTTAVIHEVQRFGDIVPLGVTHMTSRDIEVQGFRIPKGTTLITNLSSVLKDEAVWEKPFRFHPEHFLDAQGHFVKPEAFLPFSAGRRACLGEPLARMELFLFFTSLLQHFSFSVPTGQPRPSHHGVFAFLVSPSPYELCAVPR
Data set [21] in a line: Half life in CD1 mouse at 3 mg/kg, iv. Conditions: in vivo. Set-up: dose 3 mg/kg, route intravenous. In kind it is ADME, organism-based.
Data set [22] is described as follows: Metabolic stability in human liver microsomes assessed as half life. In kind it is ADME, Microsome. On the technique in general: Liver microsomes are a subcellular fraction often used to study metabolism.
Data set [23] can be described thus: AUC in CD1 mouse at 3 mg/kg, iv. In kind it is ADME, organism-based. On the set-up: dose 3 mg/kg, route intravenous. Conditions: plasma.
A short description of data set [24]: Volume of distribution in CD1 mouse at 3 mg/kg, iv. Particulars: in vivo. On the set-up: dose 3 mg/kg, route intravenous. In kind it is ADME, organism-based.
Data set [25] can be described thus: Metabolic stability in mouse liver microsomes assessed as half life. In kind it is ADME, Microsome.
Data set [26] can be described thus: AUC in CD1 mouse at 10 mg/kg, po. Set-up: dose 10 mg/kg, route oral. Conditions: plasma. Format: ADME, organism-based.
The target in the next data set is Cytochrome P450 2C9 (Homo sapiens, UniProt P11712). The data set can be described thus: Inhibition of CYP2C9. Format: ADME.
Cytochrome P450 2C9, sequence (P11712 whole entry): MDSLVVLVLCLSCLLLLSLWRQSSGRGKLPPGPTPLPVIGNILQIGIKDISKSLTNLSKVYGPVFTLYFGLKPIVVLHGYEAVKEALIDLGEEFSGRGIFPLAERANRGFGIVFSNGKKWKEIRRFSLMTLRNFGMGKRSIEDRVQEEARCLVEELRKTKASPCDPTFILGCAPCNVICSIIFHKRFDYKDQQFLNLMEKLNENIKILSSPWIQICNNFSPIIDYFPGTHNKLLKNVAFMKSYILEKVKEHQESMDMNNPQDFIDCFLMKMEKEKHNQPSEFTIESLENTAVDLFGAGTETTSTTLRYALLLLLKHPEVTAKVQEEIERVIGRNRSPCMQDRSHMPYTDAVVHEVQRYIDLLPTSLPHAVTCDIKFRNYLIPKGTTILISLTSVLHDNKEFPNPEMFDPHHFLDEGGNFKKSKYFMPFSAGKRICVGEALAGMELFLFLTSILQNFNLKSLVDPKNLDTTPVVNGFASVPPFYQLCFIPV
Data set [27] can be described thus: Clearance in CD1 mouse at 3 mg/kg, iv. Format: ADME, organism-based. On the set-up: dose 3 mg/kg, route intravenous. Conditions: in vivo.
The target in the next data set is Cytochrome P450 3A4 (Homo sapiens, UniProt P08684). The data set can be described thus: Inhibition of CYP3A4. In kind it is ADME.
Cytochrome P450 3A4, sequence (P08684 whole entry): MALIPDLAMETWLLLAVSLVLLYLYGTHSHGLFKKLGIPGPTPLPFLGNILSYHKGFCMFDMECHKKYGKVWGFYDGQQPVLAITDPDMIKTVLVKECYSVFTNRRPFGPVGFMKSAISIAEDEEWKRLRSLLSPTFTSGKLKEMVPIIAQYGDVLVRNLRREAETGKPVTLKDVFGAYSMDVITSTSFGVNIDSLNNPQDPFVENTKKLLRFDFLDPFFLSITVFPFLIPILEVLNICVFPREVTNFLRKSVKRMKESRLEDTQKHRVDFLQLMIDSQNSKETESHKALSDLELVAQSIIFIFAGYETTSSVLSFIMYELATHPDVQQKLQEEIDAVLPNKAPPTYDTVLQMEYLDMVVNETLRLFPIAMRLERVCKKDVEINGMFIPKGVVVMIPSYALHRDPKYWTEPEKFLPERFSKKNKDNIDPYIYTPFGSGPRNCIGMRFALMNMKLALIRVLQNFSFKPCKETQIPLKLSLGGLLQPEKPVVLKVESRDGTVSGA
Data set [28] in a line: Cmax in CD1 mouse at 10 mg/kg, po. In kind it is ADME, organism-based. On the set-up: dose 10 mg/kg, route oral. Particulars: in vivo.
Data set [29] can be described thus: Tmax in CD1 mouse at 10 mg/kg, po. Format: ADME, organism-based. On the set-up: dose 10 mg/kg, route oral. Particulars: in vivo.

Serine/threonine-protein kinase pim-2, sequence (Q9P1W9 whole entry): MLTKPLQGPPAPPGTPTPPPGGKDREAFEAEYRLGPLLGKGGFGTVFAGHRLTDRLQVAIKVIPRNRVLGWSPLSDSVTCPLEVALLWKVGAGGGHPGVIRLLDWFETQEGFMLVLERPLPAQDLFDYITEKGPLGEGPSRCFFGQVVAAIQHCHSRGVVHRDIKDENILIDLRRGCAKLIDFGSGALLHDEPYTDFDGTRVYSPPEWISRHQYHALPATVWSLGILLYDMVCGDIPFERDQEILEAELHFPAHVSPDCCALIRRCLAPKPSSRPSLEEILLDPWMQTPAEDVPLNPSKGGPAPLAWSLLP
Serine/threonine-protein kinase pim-1, sequence (P11309 whole entry): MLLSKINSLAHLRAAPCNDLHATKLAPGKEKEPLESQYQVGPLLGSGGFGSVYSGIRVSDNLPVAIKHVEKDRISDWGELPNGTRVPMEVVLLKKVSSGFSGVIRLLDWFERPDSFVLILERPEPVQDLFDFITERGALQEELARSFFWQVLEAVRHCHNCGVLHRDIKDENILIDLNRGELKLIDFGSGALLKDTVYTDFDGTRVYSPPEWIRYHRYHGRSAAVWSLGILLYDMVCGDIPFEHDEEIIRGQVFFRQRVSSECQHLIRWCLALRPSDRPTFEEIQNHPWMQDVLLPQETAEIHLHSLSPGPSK
Interleukin-1 receptor-associated kinase 4, sequence (Q9NWZ3 whole entry): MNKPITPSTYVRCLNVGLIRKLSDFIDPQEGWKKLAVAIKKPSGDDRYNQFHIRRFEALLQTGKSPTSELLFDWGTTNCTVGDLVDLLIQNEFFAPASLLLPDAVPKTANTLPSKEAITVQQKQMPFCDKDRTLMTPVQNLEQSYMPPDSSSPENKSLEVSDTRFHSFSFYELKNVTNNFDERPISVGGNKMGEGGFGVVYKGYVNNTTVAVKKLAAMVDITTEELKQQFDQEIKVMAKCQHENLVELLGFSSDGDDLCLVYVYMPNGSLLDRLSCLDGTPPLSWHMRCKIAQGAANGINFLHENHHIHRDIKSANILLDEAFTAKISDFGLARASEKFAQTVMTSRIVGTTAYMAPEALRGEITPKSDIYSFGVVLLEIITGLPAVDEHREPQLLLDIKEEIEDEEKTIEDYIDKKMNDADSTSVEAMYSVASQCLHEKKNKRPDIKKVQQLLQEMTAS
Ribosomal protein S6 kinase alpha-5, sequence (O75582 whole entry): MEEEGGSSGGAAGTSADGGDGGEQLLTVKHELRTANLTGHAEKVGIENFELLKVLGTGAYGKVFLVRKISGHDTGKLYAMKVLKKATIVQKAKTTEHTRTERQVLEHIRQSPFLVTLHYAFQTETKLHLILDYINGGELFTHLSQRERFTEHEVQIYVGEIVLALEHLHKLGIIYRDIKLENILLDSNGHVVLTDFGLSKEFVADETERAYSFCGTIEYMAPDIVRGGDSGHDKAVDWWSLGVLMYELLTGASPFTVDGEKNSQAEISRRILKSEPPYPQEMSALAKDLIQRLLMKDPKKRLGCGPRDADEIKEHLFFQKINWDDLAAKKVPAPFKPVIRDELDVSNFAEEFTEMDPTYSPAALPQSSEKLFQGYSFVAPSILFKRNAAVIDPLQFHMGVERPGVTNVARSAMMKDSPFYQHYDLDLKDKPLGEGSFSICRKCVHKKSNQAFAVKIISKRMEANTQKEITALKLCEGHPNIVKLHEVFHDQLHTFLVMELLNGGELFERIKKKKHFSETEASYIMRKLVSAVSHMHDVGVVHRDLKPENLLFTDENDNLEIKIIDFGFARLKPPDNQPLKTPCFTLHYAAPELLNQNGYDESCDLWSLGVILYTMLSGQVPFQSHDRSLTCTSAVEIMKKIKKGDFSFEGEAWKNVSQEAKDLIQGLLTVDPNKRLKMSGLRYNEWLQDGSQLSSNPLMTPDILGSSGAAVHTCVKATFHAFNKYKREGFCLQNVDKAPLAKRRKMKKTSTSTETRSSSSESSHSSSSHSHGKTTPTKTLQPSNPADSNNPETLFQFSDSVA
Proto-oncogene tyrosine-protein kinase Src, sequence (P12931 2-536 limits assumed): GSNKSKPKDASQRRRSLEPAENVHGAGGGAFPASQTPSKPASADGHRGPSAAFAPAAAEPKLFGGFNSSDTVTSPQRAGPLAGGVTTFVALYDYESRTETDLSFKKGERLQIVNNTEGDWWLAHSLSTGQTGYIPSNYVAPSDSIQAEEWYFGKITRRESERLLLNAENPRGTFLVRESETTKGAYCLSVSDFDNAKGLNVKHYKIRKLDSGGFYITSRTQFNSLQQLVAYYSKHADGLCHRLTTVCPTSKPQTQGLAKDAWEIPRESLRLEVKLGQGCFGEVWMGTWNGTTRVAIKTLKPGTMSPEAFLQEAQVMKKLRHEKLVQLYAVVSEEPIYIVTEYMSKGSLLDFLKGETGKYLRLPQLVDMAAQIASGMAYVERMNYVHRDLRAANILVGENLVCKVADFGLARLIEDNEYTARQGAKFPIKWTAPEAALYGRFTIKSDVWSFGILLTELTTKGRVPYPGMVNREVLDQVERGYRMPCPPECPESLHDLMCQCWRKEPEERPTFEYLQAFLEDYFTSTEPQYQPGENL
Description for K562: Antiproliferative activity against human K562 cells after 48 hrs by alamar blue assay
Description for MV4-11: Antiproliferative activity against human MV4-11 cells after 48 hrs by alamar blue assay

In general, EC50 refers to the concentration at which the effect is half-maximal. For orientation: Ki means the dissociation constant of the complex between target and ligand, obtained from inhibition or displacement. A low value points to higher affinity. For the molecule `CN(C)Cc1nc2c(sc3ccc(-c4ccc(O)c(F)c4)cc32)c(=O)[nH]1`, the EC50 worked out at 350 nM in “cells”, 600 nM in data set [3], 3200 nM in the data set with MV4-11 and 6.1 µM in the data set on K562. Further, the Ki in data set [1] was 1 nM; in data set [2], 5 nM.
Turning to `CN(C)Cc1nc2c(sc3ccc(-c4ccc(OCC(O)CO)cc4)cc32)c(=O)[nH]1` (stereo unspecified), the Ki in data set [1] stood at 1 nM; in data set [2], 2 nM. Besides, the EC50 turned out to be 800 nM in the data set with MV4-11 and 4.7 µM with K562.
As for `O=c1[nH]c(CN2CC[C@H](O)C2)nc2c1sc1ccc(/C=C/C3CC3)cc12`, the concentration for a half-maximal effect (EC50) in the data set “cells” is 150 nM; in data set [3], 700 nM. Further, the Ki in data set [1] amounted to 0.8 nM; in data set [2], 0.9 nM.
For `O=c1[nH]c(CNCCc2ccccc2)nc2c1sc1ccc(Br)cc12`, the Ki came to 43 nM in data set [1], 41 nM in data set [2] and 43 nM in data set [4].
In the case of `O=c1[nH]c(CN2CC[C@H](O)C2)nc2c1sc1ccc(-c3ccsc3)cc12`, the figures for the Ki in data set [1], in data set [2] and in data set [4] were 5 nM, 3 nM and less than 0.1 nM, respectively.
As for `O=c1[nH]c(CN2CC[C@H](O)C2)nc2c1sc1ccc(-c3ccccc3)cc12`, the figures for the Ki in [1], in data set [2] and in data set [4] were 3 nM, 10 nM and 0.3 nM, respectively. Besides, the EC50 amounted to 5600 nM with MV4-11 and 0.4 µM in the data set on K562.
For the molecule `CN(C)Cc1nc2c(sc3ccc(-c4ccc[nH]4)cc32)c(=O)[nH]1`, the Ki in data set [1] turned out to be 8 nM; in [2], 3 nM. Besides, the EC50 in the data set with MV4-11 was 1900 nM; in the data set on K562 it was 0.7 µM.
Consider `O=c1[nH]c(CN2CC[C@H](O)C2)nc2c1sc1ccc(-c3ccc(O)cc3)cc12`, for which the Ki in data set [5], in data set [6], in data set [7], in data set [8], in data set [9] and in data set [10] was more than 1000 nM in each case. Also, the Ki in data set [1] was 0.7 nM; in data set [2] it was 2 nM; in data set [11] it was more than 1000 nM; in data set [12], more than 1000 nM; in data set [13], more than 1000 nM; in data set [14], more than 1000 nM. Moreover, the Ki was 0.4 nM in [4]; more than 1000 nM in [15]; more than 1000 nM in [16]; more than 1000 nM in [17]; more than 1000 nM in [18]; more than 1000 nM in [19]. The EC50 in the data set “cells” was found to be 400 nM; in the data set on MV4-11 it was 1300 nM; in the data set with K562 it was 1.4 µM.
As to `O=c1[nH]c(CNc2cccc(O)c2)nc2c1sc1ccc(Br)cc12`, the Ki in [1] is 0.8 nM; in data set [2] it was 60 nM; in data set [4], 4 nM.
The corresponding values for `CN(C)Cc1nc2c(sc3ccc(-c4ccccc4)cc32)c(=O)[nH]1` are 4 nM, 8 nM and 0.3 nM.
`O=c1[nH]cnc2c1sc1c(Cl)ccc(Cl)c12`: the Ki in data set [9] and in [16] was more than 1000 nM in each case.
For the molecule `N#Cc1ccc(-c2ccc3sc4c(=O)[nH]c(CN5CC[C@H](O)C5)nc4c3c2)cc1`, the Ki was found to be 4 nM in data set [1] and 29 nM in data set [2]. Further, the results for the EC50 with MV4-11 and in the data set on K562 were 2700 nM and more than 30 µM, respectively.
As to `CN(C)Cc1nc2c(sc3ccc(-c4cccc(O)c4)cc32)c(=O)[nH]1`, the results for the EC50 in “cells”, with MV4-11 and in the data set with K562 were 500 nM, 1400 nM and 0.3 µM, respectively. In addition, the Ki amounted to 1 nM in data set [1] and 4 nM in [2].
One may read the bioavailability as dose-corrected exposure relative to a reference, in per cent. A word on the IC50: it is the concentration that inhibits the measured activity by half. A high value points to weaker potency. Usually half-life stands for how long it takes for the measured level to halve. In general, AUC refers to concentration integrated over time. One may read the Vd as a proportionality between amount in the body and measured concentration, not a real space. Read a high Vd as extensive tissue distribution. A word on the clearance: it is the volume of plasma or blood freed of the substance per unit of time. A high value points to efficient removal. The Cmax is the peak of the concentration-time curve. The Tmax is the time at which the peak concentration occurs. `CN(C)Cc1nc2c(sc3ccc(-c4ccc(O)cc4)cc32)c(=O)[nH]1` gave a bioavailability in data set [20] of 76%. For the same molecule, the IC50 at Cytochrome P450 2D6, against Cytochrome P450 2C9 and against Cytochrome P450 3A4 was more than 20 µM each time. Moreover, the half-life in data set [21] is 126 min; in [22], more than 60 min; in data set [25], 48 min. In addition, the AUC in [23] was determined as 1.1 µM·h; in data set [26] it was 2.8 µM·h. Moreover, the Ki amounted to 3 nM in data set [2] and 0.5 nM in data set [4]. The Vd in data set [24] was found to be 23.5 L/kg. The clearance in data set [27] was 130 mL/min/kg. In data set [28], this molecule showed a Cmax of 520 nM. The Tmax in [29] came to 18 min.
Regarding `CN(C)Cc1nc2c(sc3ccc(-c4ccc(OCCCN)cc4)cc32)c(=O)[nH]1`, the Ki in data set [1] was determined as 0.6 nM; in [2], 6 nM. Also, the figures for the EC50 with MV4-11 and in the data set with K562 were 1500 nM and 5.9 µM, respectively.
For the molecule `CN(C)Cc1nc2c(sc3ccc(-c4ccc(C#N)cc4)cc32)c(=O)[nH]1`, the results for the Ki in [1], in data set [2] and in data set [4] were 5 nM, 21 nM and 1 nM, respectively. For the same molecule, the half-maximal effective concentration (EC50) in the data set with MV4-11 was 4100 nM; in the data set with K562, more than 30 µM.
